Laboratory results reported in US20230123334A1, “AMINO LIPID COMPOUND, PREPARATION METHOD THEREFOR, AND APPLICATION THEREOF” (SHENZHEN SHENXIN BIOTECHNOLOGY CO., LTD., priority 2020, published 2023).

test system: HEK293 cells; test: Preliminary screening as mRNA vectors, EGFP mRNA transfection of HEK293 cells; type: cell-based; details: EGFP mRNA 50 ng per well, 96-well plates; percentage of GFP fluorescent cells relative to total number of cells (Hoechst)
Experimental: Cell line: HEK293 cells (ATCC CRL-1573™)
Medium: DMEM supplemented with 10% fetal bovine serum (Invitrogen)
Screening: cell transfection on 96-well plates
Detection (readout): percentage of the number of GFP fluorescent cells relative to the total number of cells (the total number of cells was determined using nucleus dye Hoechst). Lipofectamine2000 (Invitrogen) was used as the positive control.
Method: the experimental method was basically the same with Example 4, and the mass of EGFP mRNA (TriLink) for transfection was 50 ng per well.

SMILES	Absolute mRNA transfection efficiency in HEK293 cells
CCCCCCCCCCSc1nc(NCCCCCCCC)nc(NCCN2CCOCC2)n1 [Compound D2S10N8]	0.5%
CCCCCCCCCCSc1nc(NCCCCCCCCC)nc(NCCN2CCOCC2)n1 [Compound D2S10N9]	0.5%
CCCCCCCCCCCNc1nc(NCCN2CCOCC2)nc(SCCCCCCCCCC)n1 [Compound D2S10N11]	0.2%
CCCCCCCCCCCCNc1nc(NCCN2CCOCC2)nc(SCCCCCCCCCC)n1 [Compound D2S10N12]	1.5%
CCCCCCCCCCCCCNc1nc(NCCN2CCOCC2)nc(SCCCCCCCCCC)n1 [Compound D2S10N13]	0.2%
CCCCCCCCCCCCCCCNc1nc(NCCN2CCOCC2)nc(SCCCCCCCCCC)n1 [Compound D2S10N15]	1.3%
CCCCCCCCCCCCCCCCNc1nc(NCCN2CCOCC2)nc(SCCCCCCCCCC)n1 [Compound D2S10N16]	0.6%
CCCCCCCCCCCCCCCCCCNc1nc(NCCN2CCOCC2)nc(SCCCCCCCCCC)n1 [Compound D2S10N18]	0.0%
CCCCCCCCCCCSc1nc(NCCCCCC)nc(NCCN2CCOCC2)n1 [Compound D2S11N6]	5.4%
CCCCCCCCCCCSc1nc(NCCCCCCC)nc(NCCN2CCOCC2)n1 [Compound D2S11N7]	8.5%
CCCCCCCCCCCSc1nc(NCCCCCCCC)nc(NCCN2CCOCC2)n1 [Compound D2S11N8]	2.4%
CCCCCCCCCCCSc1nc(NCCCCCCCCC)nc(NCCN2CCOCC2)n1 [Compound D2S11N9]	2.5%
CCCCCCCCCCCNc1nc(NCCN2CCOCC2)nc(SCCCCCCCCCCC)n1 [Compound D2S11N11]	0.6%
CCCCCCCCCCCCNc1nc(NCCN2CCOCC2)nc(SCCCCCCCCCCC)n1 [Compound D2S11N12]	3.1%
CCCCCCCCCCCCCNc1nc(NCCN2CCOCC2)nc(SCCCCCCCCCCC)n1 [Compound D2S11N13]	1.9%
CCCCCCCCCCCCCCCNc1nc(NCCN2CCOCC2)nc(SCCCCCCCCCCC)n1 [Compound D2S11N15]	2.8%
CCCCCCCCCCCCCCCCNc1nc(NCCN2CCOCC2)nc(SCCCCCCCCCCC)n1 [Compound D2S11N16]	1.1%
CCCCCCCCCCCCCCCCCCNc1nc(NCCN2CCOCC2)nc(SCCCCCCCCCCC)n1 [Compound D2S11N18]	0.0%
CCCCCCCCCCCCSc1nc(NCCCCCC)nc(NCCN2CCOCC2)n1 [Compound D2S12N6]	0.0%
CCCCCCCCCCCCSc1nc(NCCCCCCC)nc(NCCN2CCOCC2)n1 [Compound D2S12N7]	0.4%
CCCCCCCCCCCCSc1nc(NCCCCCCCC)nc(NCCN2CCOCC2)n1 [Compound D2S12N8]	1.6%
CCCCCCCCCCCCSc1nc(NCCCCCCCCC)nc(NCCN2CCOCC2)n1 [Compound D2S12N9]	1.1%

SMILES	Absolute mRNA transfection efficiency in HEK293 cells
CCCCCCCCCCCCSc1nc(NCCCCCCCCCCC)nc(NCCN2CCOCC2)n1 [Compound D2S12N11]	0.3%
CCCCCCCCCCCCNc1nc(NCCN2CCOCC2)nc(SCCCCCCCCCCCC)n1 [Compound D2S12N12]	0.0%
CCCCCCCCCCCCCNc1nc(NCCN2CCOCC2)nc(SCCCCCCCCCCCC)n1 [Compound D2S12N13]	0.0%
CCCCCCCCCCCCCCCNc1nc(NCCN2CCOCC2)nc(SCCCCCCCCCCCC)n1 [Compound D2S12N15]	0.0%
CCCCCCCCCCCCCCCCNc1nc(NCCN2CCOCC2)nc(SCCCCCCCCCCCC)n1 [Compound D2S12N16]	0.8%
CCCCCCCCCCCCCCCCCCNc1nc(NCCN2CCOCC2)nc(SCCCCCCCCCCCC)n1 [Compound D2S12N18]	0.8%
CCCCCCCCCCCCCCSc1nc(NCCCCCC)nc(NCCN2CCOCC2)n1 [Compound D2S14N6]	8.8%
CCCCCCCCCCCCCCSc1nc(NCCCCCCC)nc(NCCN2CCOCC2)n1 [Compound D2S14N7]	4.5%
CCCCCCCCCCCCCCSc1nc(NCCCCCCCC)nc(NCCN2CCOCC2)n1 [Compound D2S14N8]	3.7%
CCCCCCCCCCCCCCSc1nc(NCCCCCCCCC)nc(NCCN2CCOCC2)n1 [Compound D2S14N9]	7.4%
CCCCCCCCCCCCCCSc1nc(NCCCCCCCCCCC)nc(NCCN2CCOCC2)n1 [Compound D2S14N11]	3.5%
CCCCCCCCCCCCCCSc1nc(NCCCCCCCCCCCC)nc(NCCN2CCOCC2)n1 [Compound D2S14N12]	2.1%
CCCCCCCCCCCCCCSc1nc(NCCCCCCCCCCCCC)nc(NCCN2CCOCC2)n1 [Compound D2S14N13]	1.1%
CCCCCCCCCCCCCCCNc1nc(NCCN2CCOCC2)nc(SCCCCCCCCCCCCCC)n1 [Compound D2S14N15]	0.0%
CCCCCCCCCCCCCCCCNc1nc(NCCN2CCOCC2)nc(SCCCCCCCCCCCCCC)n1 [Compound D2S14N16]	0.1%
CCCCCCCCCCCCCCCCCCNc1nc(NCCN2CCOCC2)nc(SCCCCCCCCCCCCCC)n1 [Compound D2S14N18]	0.1%
CCCCCCCCCCCCCCCSc1nc(NCCCCCC)nc(NCCN2CCOCC2)n1 [Compound D2S15N6]	4.9%
CCCCCCCCCCCCCCCSc1nc(NCCCCCCC)nc(NCCN2CCOCC2)n1 [Compound D2S15N7]	4.5%
CCCCCCCCCCCCCCCSc1nc(NCCCCCCCC)nc(NCCN2CCOCC2)n1 [Compound D2S15N8]	2.2%
CCCCCCCCCCCCCCCSc1nc(NCCCCCCCCC)nc(NCCN2CCOCC2)n1 [Compound D2S15N9]	1.1%
CCCCCCCCCCCCCCCSc1nc(NCCCCCCCCCCC)nc(NCCN2CCOCC2)n1 [Compound D2S15N11]	3.3%
CCCCCCCCCCCCCCCSc1nc(NCCCCCCCCCCCC)nc(NCCN2CCOCC2)n1 [Compound D2S15N12]	0.1%

SMILES	Absolute mRNA transfection efficiency in HEK293 cells
CCCCCCCCCCCCCCCSc1nc(NCCCCCCCCCCCCC)nc(NCCN2CCOCC2)n1 [Compound D2S15N13]	0.1%
CCCCCCCCCCCCCCCNc1nc(NCCN2CCOCC2)nc(SCCCCCCCCCCCCCCC)n1 [Compound D2S15N15]	0.2%
CCCCCCCCCCCCCCCCNc1nc(NCCN2CCOCC2)nc(SCCCCCCCCCCCCCCC)n1 [Compound D2S15N16]	1.4%
CCCCCCCCCCCCCCCCCCNc1nc(NCCN2CCOCC2)nc(SCCCCCCCCCCCCCCC)n1 [Compound D2S15N18]	0.3%
CCCCCCCCCCCCCCCCSc1nc(NCCCCCC)nc(NCCN2CCOCC2)n1 [Compound D2S16N6]	23.6%
CCCCCCCCCCCCCCCCSc1nc(NCCCCCCC)nc(NCCN2CCOCC2)n1 [Compound D2S16N7]	10.0%
CCCCCCCCCCCCCCCCSc1nc(NCCCCCCCC)nc(NCCN2CCOCC2)n1 [Compound D2S16N8]	19.1%
CCCCCCCCCCCCCCCCSc1nc(NCCCCCCCCC)nc(NCCN2CCOCC2)n1 [Compound D2S16N9]	7.2%
CCCCCCCCCCCCCCCCSc1nc(NCCCCCCCCCCC)nc(NCCN2CCOCC2)n1 [Compound D2S16N11]	4.1%
CCCCCCCCCCCCCCCCSc1nc(NCCCCCCCCCCCC)nc(NCCN2CCOCC2)n1 [Compound D2S16N12]	1.2%
CCCCCCCCCCCCCCCCSc1nc(NCCCCCCCCCCCCC)nc(NCCN2CCOCC2)n1 [Compound D2S16N13]	0.0%
CCCCCCCCCCCCCCCCSc1nc(NCCCCCCCCCCCCCCC)nc(NCCN2CCOCC2)n1 [Compound D2S16N15]	0.2%
CCCCCCCCCCCCCCCCNc1nc(NCCN2CCOCC2)nc(SCCCCCCCCCCCCCCCC)n1 [Compound D2S16N16]	0.0%
CCCCCCCCCCCCCCCCCCNc1nc(NCCN2CCOCC2)nc(SCCCCCCCCCCCCCCCC)n1 [Compound D2S16N18]	0.0%
CCCCCCCCCCCCCCCCCCSc1nc(NCCCCCC)nc(NCCN2CCOCC2)n1 [Compound D2S18N6]	0.4%
CCCCCCCCCCCCCCCCCCSc1nc(NCCCCCCC)nc(NCCN2CCOCC2)n1 [Compound D2S18N7]	1.0%
CCCCCCCCCCCCCCCCCCSc1nc(NCCCCCCCC)nc(NCCN2CCOCC2)n1 [Compound D2S18N8]	3.1%
CCCCCCCCCCCCCCCCCCSc1nc(NCCCCCCCCC)nc(NCCN2CCOCC2)n1 [Compound D2S18N9]	0.4%
CCCCCCCCCCCCCCCCCCSc1nc(NCCCCCCCCCCC)nc(NCCN2CCOCC2)n1 [Compound D2S18N11]	0.5%
CCCCCCCCCCCCCCCCCCSc1nc(NCCCCCCCCCCCC)nc(NCCN2CCOCC2)n1 [Compound D2S18N12]	2.3%
